# Laboratory results reported in PMC8659250, “Adjusting the Structure of β-Cyclodextrin to Improve Complexation of Anthraquinone-Derived Drugs” (Molecules, 2021).
# Where a name gives a salt, the structure may show the parent alone. Read-outs that look alike come from different tables or passages of the source.
# Experiments:
# [1] = Determination of pKa values of CD derivatives by UV-Vis spectroscopy; type: physicochemical; conditions: Britton–Robinson buffer, pH range 2.7 to 9.5, triazole linker
# Text: Due to the fact that the triazole linker in CD derivatives contains a basic nitrogen atom that can be protonated at an acidic pH, we determined the value of pKa by UV-Vis spectroscopy. The spectra of βCDGAL, βCDLip, and βCDTriazol, at the pH range between 2.7 and 9.5, are presented on Figure 3. The dependence of the absorbance of the peak maximum at wavelengths in the range of 210–220 on the pH of the buffer is presented in the figures. According to the equation […] for equal concentrations of the protonated and deprotonated forms, pKa = pH; the pKa value, for all three derivatives containing the triazole linker, was determined to be 4.5.
# The UV-Vis measurements were performed using an Agilent Technologies Cary 60 UV-Vis Spectrophotometer (Santa Clara, CA, USA). All UV-Vis spectra were measured using quartz cuvettes with a 1 cm optical path length. For pKa determination the 0.2 mg/mL concentration of βCDTriazole, βCDGAL or βCDLip in Britton–Robinson buffer were used.
# [2] = Phase solubility diagrams (Higuchi and Connors) of AQ2CA with cyclodextrins; type: physicochemical; conditions: for K1:1 (association constant, AQ2CA–cyclodextrin): phase solubility diagram, 25 °C; for Increase in solubility of AQ2CA (in words): pH 3.0
# Text: (§1) Anthraquinone-2-carboxylic acid (AQ2CA) is a poorly water-soluble drug (SAQ2CA in water = 3.98 × 10^−5 M). […] An improvement in the aqueous solubility of AQ2CA would improve the biological availability of the drug. Such a drug solubilization effect was achieved via complexation using appropriate CD derivatives. The phase solubility method developed by Higuchi and Connors was employed to quantify the solubilization ability of cyclodextrins. The solubility values of AQ2CA in water, BR buffer at pH 7.4 (pH corresponding to the physiological conditions), and BR buffer at pH 3.0, with the addition of CDs was determined. The pH values characteristic for bodily fluids (pH 7.4) and for gastric juices (pH 3) were chosen for these measurements. […] According to the Higuchi and Connors classification, the phase solubility diagrams for anthraquinone-2-carboxylic acid with various cyclodextrin concentrations can be classified as AL type.
# The association constant of the AQ2CA–cyclodextrin complex (1:1) was calculated from the linear plot of the phase solubility diagrams using Equation (1). The lines are started at the point of initial drug solubility, meaning, i.e., without the addition of cyclodextrin. The values of K1:1, as well as the solubility increase and correlation coefficients of the phase solubility diagrams, are presented in Table 1.
# Solubility studies of anthraquinone-2-carboxylic acid with three different cyclodextrins were carried out according to the Higuchi and Connors procedure. […] A constant amount of AQ2CA (3 mM) that exceeded its solubility was added into the cyclodextrin solution. Molar ratios of AQ2CA/CD were 1:0, 1:0.2, 1:0.4, 1:0.6, 1:0.8, and 1:1. Three samples of each molar ratio were prepared. The suspensions were shaken for 24 h at 25 °C, after which equilibrium was reached. After 24 h, the concentration of the dissolved drug was monitored by UV-Vis spectroscopy and plateaued; thus, the maximum dissolved drug was achieved. Subsequently, the samples were filtered using a 0.45 µm filter and appropriately diluted. The aliquots of solutions were assayed for AQ2CA again, by UV-Vis spectroscopy, in the 200–600 nm range with a maximum absorbance value for AQ2CA at 335 nm. […] The association constants of the inclusion complexes were determined using the following equation:(1) K1:1=Slope/S0(1−Slope) where K1:1 is the association constant and S0 is the solubility of AQ2CA in the absence of cyclodextrin. The slope was measured by UV-Vis spectroscopy from the initial straight-line part of the AQ2CA concentration vs. CD concentration plot. The uncertainty was determined as the standard deviation of the three values of the association constants obtained from three different repetitions of the given system.
# [3] = Solubility of AQ2CA without cyclodextrins (UV-Vis); type: physicochemical; conditions: 25 °C, thermodynamic from solid
# Text: as §1
# Solubility studies of anthraquinone-2-carboxylic acid with three different cyclodextrins were carried out according to the Higuchi and Connors procedure. The solutions of cyclodextrin in water and Britton–Robinson buffers (pH 7.4 and […]) were prepared in a concentration range of 0–3 mM. A constant amount of AQ2CA (3 mM) that exceeded its solubility was added into the cyclodextrin solution. Molar ratios of AQ2CA/CD were 1:0, 1:0.2, 1:0.4, 1:0.6, 1:0.8, and 1:1. Three samples of each molar ratio were prepared. The suspensions were shaken for 24 h at 25 °C, after which equilibrium was reached. After 24 h, the concentration of the dissolved drug was monitored by UV-Vis spectroscopy and plateaued; thus, the maximum dissolved drug was achieved. Subsequently, the samples were filtered using a 0.45 µm filter and appropriately diluted. The aliquots of solutions were assayed for AQ2CA again, by UV-Vis spectroscopy, in the 200–600 nm range with a maximum absorbance value for AQ2CA at 335 nm. […] The association constants of the inclusion complexes were determined using the following equation:(1) K1:1=Slope/S0(1−Slope) where K1:1 is the association constant and S0 is the solubility of AQ2CA in the absence of cyclodextrin. The slope was measured by UV-Vis spectroscopy from the initial straight-line part of the AQ2CA concentration vs. CD concentration plot. The uncertainty was determined as the standard deviation of the three values of the association constants obtained from three different repetitions of the given system.
# [4] = cited from earlier work
Compound,pKa [1],"K1:1 (association constant, AQ2CA–cyclodextrin) ([2]; Britton–Robinson buffer pH 3.0) [M⁻¹]","K1:1 (association constant, AQ2CA–cyclodextrin) ([2]; Britton–Robinson buffer pH 7.4) [M⁻¹]","K1:1 (association constant, AQ2CA–cyclodextrin) ([2]; water) [M⁻¹]",also measured
O=C(N[C@H]1C(O)O[C@H](CO)[C@H](O)[C@@H]1O)OCc1cn(C[C@H]2O[C@@H]3O[C@H]4[C@H](O)[C@@H](O)[C@@H](O[C@H]5[C@H](O)[C@@H](O)[C@@H](O[C@H]6[C@H](O)[C@@H](O)[C@@H](O[C@H]7[C@H](O)[C@@H](O)[C@@H](O[C@H]8[C@H](O)[C@@H](O)[C@@H](O[C@H]9[C@H](O)[C@@H](O)[C@@H](O[C@H]2[C@H](O)[C@H]3O)O[C@@H]9CO)O[C@@H]8CO)O[C@@H]7CO)O[C@@H]6CO)O[C@@H]5CO)O[C@@H]4CO)nn1 (stereo partly drawn) [βCDGAL],4.5,2760 ± 110,1300 ± 60,840 ± 45,Increase in solubility of AQ2CA (in words) [2]: almost tenfold increase
O=C(CCCCC1CCSS1)OCc1cn(C[C@H]2O[C@@H]3O[C@H]4[C@H](O)[C@@H](O)[C@@H](O[C@H]5[C@H](O)[C@@H](O)[C@@H](O[C@H]6[C@H](O)[C@@H](O)[C@@H](O[C@H]7[C@H](O)[C@@H](O)[C@@H](O[C@H]8[C@H](O)[C@@H](O)[C@@H](O[C@H]9[C@H](O)[C@@H](O)[C@@H](O[C@H]2[C@H](O)[C@H]3O)O[C@@H]9CO)O[C@@H]8CO)O[C@@H]7CO)O[C@@H]6CO)O[C@@H]5CO)O[C@@H]4CO)nn1 (stereo partly drawn) [βCDLip],4.5,2520 ± 175,940 ± 25,800 ± 40,Increase in solubility of AQ2CA (in words) [2]: almost tenfold increase
CCCc1cn(C[C@H]2O[C@@H]3O[C@H]4[C@H](O)[C@@H](O)[C@@H](O[C@H]5[C@H](O)[C@@H](O)[C@@H](O[C@H]6[C@H](O)[C@@H](O)[C@@H](O[C@H]7[C@H](O)[C@@H](O)[C@@H](O[C@H]8[C@H](O)[C@@H](O)[C@@H](O[C@H]9[C@H](O)[C@@H](O)[C@@H](O[C@H]2[C@H](O)[C@H]3O)O[C@@H]9CO)O[C@@H]8CO)O[C@@H]7CO)O[C@@H]6CO)O[C@@H]5CO)O[C@@H]4CO)nn1 [βCDTriazol],4.5,,,,
"O=C(O)c1ccc2c(c1)C(=O)c1ccccc1C2=O [AQ2CA, 9,10-dihydro-9,10-dioxo-2-anthracenecarboxylic acid]",,,,,"solubility at 24 h ([3]; aqueous buffer, Britton–Robinson buffer pH 3.0, without CDs, read-out: Solubility of AQ2CA in Britton–Robinson buffer, pH 3.0): 1.43 µM; solubility at 24 h ([3]; aqueous buffer, Britton–Robinson buffer pH 3.0, read-out: Solubility in Britton–Robinson buffer, pH 3.0 without CDs): 0.36 µg/mL; solubility at 24 h ([3]; aqueous buffer, Britton–Robinson buffer pH 7.4, without CDs, read-out: Solubility of AQ2CA in Britton–Robinson buffer, pH 7.4): 1740 µM; solubility at 24 h ([3]; aqueous buffer, Britton–Robinson buffer pH 7.4, read-out: Solubility in Britton–Robinson buffer, pH 7.4 without CDs): 440 µg/mL; solubility at 24 h ([3]; water, without CDs, read-out: Solubility of AQ2CA in water): 39.8 µM; solubility at 24 h ([3]; water, water, read-out: Solubility in water without CDs): 10 µg/mL"
"NC[C@H]1O[C@@H]2O[C@H]3[C@H](O)[C@@H](O)[C@@H](O[C@H]4[C@H](O)[C@@H](O)[C@@H](O[C@H]5[C@H](O)[C@@H](O)[C@@H](O[C@H]6[C@H](O)[C@@H](O)[C@@H](O[C@H]7[C@H](O)[C@@H](O)[C@@H](O[C@H]8[C@H](O)[C@@H](O)[C@@H](O[C@H]1[C@H](O)[C@H]2O)O[C@@H]8CO)O[C@@H]7CO)O[C@@H]6CO)O[C@@H]5CO)O[C@@H]4CO)O[C@@H]3CO [βCDamine, 6-monodeoxy-6-monoamino-β-cyclodextrin hydrochloride]",,2450 ± 200,,280 ± 30,pKa ([4]; amine derivative CD): 8.84
"COc1cccc2c1C(=O)c1c(O)c3c(c(O)c1C2=O)C[C@@](O)(C(C)=O)C[C@@H]3O[C@H]1C[C@H](N)[C@H](O)[C@H](C)O1 [DNR, daunorubicin]",,,,,pKa [4]: 7.48
"OC[C@H]1O[C@@H]2O[C@H]3[C@H](O)[C@@H](O)[C@@H](O[C@H]4[C@H](O)[C@@H](O)[C@@H](O[C@H]5[C@H](O)[C@@H](O)[C@@H](O[C@H]6[C@H](O)[C@@H](O)[C@@H](O[C@H]7[C@H](O)[C@@H](O)[C@@H](O[C@H]8[C@H](O)[C@@H](O)[C@@H](O[C@H]1[C@H](O)[C@H]2O)O[C@@H]8CO)O[C@@H]7CO)O[C@@H]6CO)O[C@@H]5CO)O[C@@H]4CO)O[C@@H]3CO [βCD, β-Cyclodextrin]",,1480 ± 180,350 ± 40,460 ± 45,
